For 3 molecules, GI50 and Activity results are on record in ChEMBL document CHEMBL1151274, “Halogenated helianane derivatives from the sponge Spirastrella hartmani” (2005).

Assay type in all cases: functional
The test system of one test is HT-29. As to the kind of experiment: Cytotoxicity against human HT-29 cells by sulforhodamine B assay. On the technique in general: Sulforhodamine B stains cellular protein and so reports cell mass.
Another test has as its system MDA-MB-231. As to the kind of experiment: Cytotoxicity against human MDA-MB-231 cells by sulforhodamine B assay.
In the next test the test system is A549. As to the kind of experiment: Cytotoxicity against human A549 cells by sulforhodamine B assay.

Calls of active or inactive are those of the source. The rule behind the calls is not given here.

For orientation: GI50 means the concentration giving 50% growth inhibition. Low values mean more potent growth inhibition, high ones less potent growth inhibition. For `COc1cc2c(cc1O)CCN[C@]21CS[C@@H]2c3c(OC(C)=O)c(C)c4c(c3[C@H](COC1=O)N1[C@@H]2[C@H]2c3c(cc(C)c(OC)c3O)C[C@@H]([C@@H]1O)N2C)OCO4` [TRABECTEDIN], the GI50 in the test with HT-29 turned out to be 0.0197 µM; in the test with MDA-MB-231 it was 0.0184 µM; in the test with A549, 0.0263 µM.

`Cc1cc2c(cc1Br)[C@@H](C)CCCC(C)(C)O2`: the outcome in the test with HT-29, in the test on MDA-MB-231 and in the test on A549 was inactive.

With `Cc1cc2c(cc1Cl)[C@@H](C)CCCC(C)(C)O2`, the GI50 with HT-29 is 37.6 µM; with MDA-MB-231, 37.6 µM; in the test with A549 it was 37.2 µM.
